Our source for the TGI values is PubChem BioAssay (NCI).

Among the test systems are SF-539 CNS; MALME-3M melanoma; SNB-19 CNS; BT-549 breast; 786-0 renal; RXF 393 renal; T-47D breast; EKVX NSCLC; MDA-N; HS 578T breast.
What all share (test): NCI tumour cell line growth inhibition, 48 h

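Five concentrations, 48 hours, 96-well plates. Definition used: TGI = concentration required for complete inhibition of growth.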

As for `Cc1ccc(O)c(C2=NNC(c3cccc(Cl)c3)C2)c1` (stereo not drawn), the TGI in the assay on SF-539 CNS was over 100 µM; in the assay with MALME-3M melanoma, over 100 µM; in the assay on SNB-19 CNS it was 55.8 µM; with BT-549 breast, over 100 µM; in the assay with 786-0 renal, over 100 µM; in the assay on RXF 393 renal, 64.6 µM. The TGI in the assay on T-47D breast was over 100 µM; in the assay with EKVX NSCLC it was over 100 µM; with MDA-N it was 88.1 µM; with HS 578T breast, 86.3 µM.
Consider `Cc1cc(S(=O)(=O)NC2=NCC(C)(C)CN2)c(S)cc1Cl`, for which the TGI with SF-539 CNS, in the assay on MALME-3M melanoma, in the assay with SNB-19 CNS, in the assay with BT-549 breast, in the assay on 786-0 renal and in the assay with RXF 393 renal was over 100 µM throughout. Further, the TGI in the assay with T-47D breast was over 100 µM; in the assay on EKVX NSCLC, over 100 µM; in the assay with MDA-N, 83.4 µM; in the assay on HS 578T breast, 87.6 µM.
For the compound `CC(C)CC1NC(=O)CCC(NC(=O)C(Cc2ccc(O)cc2)NC(=O)OCc2ccccc2)C(=O)NC(Cc2ccccc2)C(=O)NC(Cc2ccccc2)NC1=O` (stereo not drawn), the TGI in the assay on SF-539 CNS, in the assay with MALME-3M melanoma, in the assay on SNB-19 CNS, in the assay on BT-549 breast, with 786-0 renal and in the assay with RXF 393 renal was over 100 µM throughout. Also, the TGI in the assay on T-47D breast, with EKVX NSCLC, in the assay on MDA-N and in the assay on HS 578T breast was over 100 µM in each case.
Consider `CC1(C)CCC[C@@]2(C)C1CC[C@@]1(CO1)[C@@H]2/C=C\C(C=O)CC=O` (stereo partly drawn), for which the TGI in the assay with SF-539 CNS, in the assay with MALME-3M melanoma, with SNB-19 CNS, in the assay with BT-549 breast, in the assay with 786-0 renal and in the assay with RXF 393 renal was over 100 µM in each case. Also, the TGI with T-47D breast, in the assay with EKVX NSCLC, in the assay on MDA-N and with HS 578T breast was over 100 µM throughout.
As for `COC(=O)/C(C#N)=C/c1cc(C(C)(C)C)c(O)c(C(C)(C)C)c1`, the TGI was 11 µM in the assay with SF-539 CNS; 20.4 µM in the assay with MALME-3M melanoma; over 100 µM in the assay on SNB-19 CNS; 14 µM with BT-549 breast; 12.2 µM with 786-0 renal; 14.8 µM with RXF 393 renal. The TGI in the assay with T-47D breast was 19.4 µM; in the assay with EKVX NSCLC, 11.9 µM; with MDA-N it was 13.3 µM; with HS 578T breast, over 37 µM.
As to `C[C@H]1S[C@H](c2c(F)cccc2F)n2c1nc1ccccc12`, the TGI in the assay with MALME-3M melanoma, in the assay with SNB-19 CNS, in the assay with BT-549 breast, with 786-0 renal, with RXF 393 renal and in the assay on T-47D breast was over 100 µM in each case. The TGI in the assay with EKVX NSCLC, in the assay with MDA-N and in the assay on HS 578T breast was over 100 µM in each case.
Regarding `c1ccc(COC[C@H]2C3OCC([C@H](OCc4ccccc4)[C@H]3OCc3ccccc3)N2Cc2ccccc2)cc1` (stereo partly drawn), the TGI in the assay on SF-539 CNS, in the assay on MALME-3M melanoma, in the assay on SNB-19 CNS, with BT-549 breast, in the assay with 786-0 renal and in the assay with RXF 393 renal was over 100 µM throughout. Moreover, the TGI in the assay with T-47D breast, in the assay with EKVX NSCLC, in the assay with MDA-N and in the assay with HS 578T breast was over 100 µM in each case.
Consider `Oc1cccc2ccc(Br)nc12`, for which the TGI with SF-539 CNS, with MALME-3M melanoma, in the assay on SNB-19 CNS, in the assay with BT-549 breast, in the assay on 786-0 renal and in the assay on RXF 393 renal was over 100 µM throughout. Besides, the TGI in the assay on T-47D breast, with EKVX NSCLC, in the assay on MDA-N and in the assay on HS 578T breast was over 100 µM in each case.
`O=C1NC(N2CCCCC2)=N/C1=C\c1ccco1`: the TGI in the assay on SF-539 CNS, in the assay on MALME-3M melanoma, with SNB-19 CNS, in the assay with BT-549 breast, with 786-0 renal and in the assay on RXF 393 renal was over 100 µM in each case. In addition, the TGI with T-47D breast, with EKVX NSCLC, in the assay with MDA-N and in the assay with HS 578T breast was over 100 µM each time.
For `O=C(NC(CCCCN1C(=O)c2ccccc2C1=O)P(=O)(Oc1ccccc1)Oc1ccccc1)OCc1ccccc1` (stereo not drawn), the TGI with SF-539 CNS, in the assay on MALME-3M melanoma, with SNB-19 CNS, in the assay on BT-549 breast, in the assay on 786-0 renal and in the assay on RXF 393 renal was over 100 µM throughout. Besides, the TGI in the assay on T-47D breast, in the assay with EKVX NSCLC, in the assay with MDA-N and with HS 578T breast was over 100 µM in each case.
For the compound `COc1cc2c(cc1O)C(=O)O[C@@H]1CC=C3CCN(C)[C@H]3[C@H]21`, the TGI in the assay on MALME-3M melanoma, in the assay with SNB-19 CNS, with BT-549 breast, in the assay on 786-0 renal, with RXF 393 renal and with T-47D breast was over 25 µM each time. The TGI in the assay with EKVX NSCLC, with MDA-N and in the assay on HS 578T breast was over 25 µM throughout.
